# Assay results published in US20130345051A1, “FUNGICIDAL AND BACTERICIDAL COMPOSITION THAT COMPRISES VOLATILE ORGANIC COMPOUNDS OF NATURAL ORIGIN” (BIOFUNGITEK, SOCIEDAD LIMITADA, priority 2011, published 2013).
# Legend:
# Erwinia carotovora = assay: Gas-phase bioassay in hermetically sealed vials, growth inhibition of the bacterium Erwinia carotovora; format: cell-based; details: compound in the gas phase; for IC50: Pectobacterium carotovorum, read-out: IC50 (50% inhibiting concentration)
# Description: (§1) The antifungal and antibacterial activity of the VOC obtained in Example 1 was tested by bioassay in hermetically sealed vials in which the microorganism was cultured while being exposed to the compound under test in the gas phase at different concentrations. […] The IC50 (50% inhibiting concentration), the MIC (minimum inhibiting concentration) and the MLC (minimum lethal concentration) were calculated.
# Botrytis cinerea = assay: Gas-phase bioassay in hermetically sealed vials, growth inhibition of the fungus Botrytis cinerea; format: cell-based; details: compound in the gas phase; for IC50: read-out: IC50 (50% inhibiting concentration)
# Description: as §1
smiles,measurement,setting,value
CC1(C)[C@@H]2CC[C@@]1(C)[C@H](O)C2 (racemic) [isoborneol],IC50,Erwinia carotovora,> 150 µg/mL
same,MIC (minimum inhibiting concentration),Erwinia carotovora,>150 mg/Lair
same,MLC (minimum lethal concentration),Erwinia carotovora,>150 mg/Lair
same,MIC (minimum inhibiting concentration),Botrytis cinerea,40 mg/Lair
same,MLC (minimum lethal concentration),Botrytis cinerea,40 mg/Lair
same,IC50,Botrytis cinerea,5 µg/mL
CCCCCCO [hexanol],IC50,Erwinia carotovora,150 µg/mL
same,MIC (minimum inhibiting concentration),Erwinia carotovora,>150 mg/Lair
same,MLC (minimum lethal concentration),Erwinia carotovora,>150 mg/Lair
same,MIC (minimum inhibiting concentration),Botrytis cinerea,20 mg/Lair
same,MLC (minimum lethal concentration),Botrytis cinerea,40 mg/Lair
same,IC50,Botrytis cinerea,15 µg/mL
CCCCC(CC)CO (stereo not drawn) [2-ethyl-1-hexanol],IC50,Erwinia carotovora,15 µg/mL
same,MIC (minimum inhibiting concentration),Erwinia carotovora,50 mg/Lair
same,MLC (minimum lethal concentration),Erwinia carotovora,75 mg/Lair
same,MIC (minimum inhibiting concentration),Botrytis cinerea,5 mg/Lair
same,MLC (minimum lethal concentration),Botrytis cinerea,10 mg/Lair
same,IC50,Botrytis cinerea,4 µg/mL
